Experimental findings from the SangsterLogP compilation are described below.

Regarding `Oc1cc(Cl)c(Cl)c(Cl)c1`, the logP (commonly the decadic logarithm of the partition coefficient of the neutral form, usually between octanol and water) worked out at 3.75. On to `ClC1=C(Cl)C2(Cl)C3C4CC(C5OC45)C3C1(Cl)C2(Cl)Cl` (configuration not stated), for which the logP is 5.11. Molecule `Oc1ccc(Cl)c(Cl)c1` gave a logP of 3.05. In the case of `Cc1cc(C)c(C)c(C)c1`, the lipophilicity (logP) worked out at 4.17. For `Cc1ccc(C)c(C)c1C` the value was 4.11. For `Cc1cc(C)cc(C)c1`, the logP was 3.84. For `Oc1cc(Cl)cc(Cl)c1`, the logP was found to be 3.26. For `Cc1cc(C)c(C)c(C)c1C` the value was 4.56; for `Nc1c(Cl)c(Cl)c(Cl)c(Cl)c1Cl`, 4.59. With `Nc1cc(Cl)c(Cl)c(Cl)c1` the figure was 3.32; with `Nc1ccc(Cl)c(Cl)c1Cl`, 3.33; with `Nc1c(Cl)cccc1Cl`, 2.71.
